From PMC4200786, “Synthesis and Characterization of New Bivalent Agents as Melatonin- and Histamine H3-Ligands” (International Journal of Molecular Sciences, 2014)

How the values were obtained:
human MT1 receptor [1] = target: T1, human MT1 receptor (Homo sapiens, UniProt P48039); assay: Human MT1 melatonin receptor binding assay, 2-[125I]iodomelatonin competition; details: cloned human MT1 in NIH3T3 cell membranes; 2-[125I]iodomelatonin 100 pM; N.A. = Not active up to 100 μM
T1 construct: expressed in transfected cells; host or cells: NIH3T3 fibroblast cells
Method: (§1) Binding affinities were determined using 2-[^125I]iodomelatonin as the labeled ligand in competition experiments with cloned human MT1 and MT2 receptors expressed in NIH3T3 […] fibroblast cells. The characterization of NIH3T3 MT1 and MT2 cells was already described in detail. Membranes were incubated for 90 min at 37 °C in binding buffer (50 mM Tris/HCl, pH 7.4). The final membrane concentration was 5–10 μg of protein per tube. The membrane protein level was determined in accordance with a previously reported method. 2-[^125I]Iodomelatonin (100 pM) and different concentrations of the tested compounds were incubated with the receptor preparation for 90 min at 37 °C. […] The pKi values were calculated from the IC50 values according to the Cheng–Prusoff equation [51]. The pKi values are the mean of at least three independent determinations performed in duplicate.

human MT2 receptor [2] = target: T2, human MT2 receptor (Homo sapiens, UniProt P49286); assay: Human MT2 melatonin receptor binding assay, 2-[125I]iodomelatonin competition; details: cloned human MT2 in NIH3T3 cell membranes; 2-[125I]iodomelatonin 100 pM; N.A. = Not active up to 100 μM
T2 construct: expressed in transfected cells; host or cells: NIH3T3 fibroblast cells
T2 sequence (P49286 1-362): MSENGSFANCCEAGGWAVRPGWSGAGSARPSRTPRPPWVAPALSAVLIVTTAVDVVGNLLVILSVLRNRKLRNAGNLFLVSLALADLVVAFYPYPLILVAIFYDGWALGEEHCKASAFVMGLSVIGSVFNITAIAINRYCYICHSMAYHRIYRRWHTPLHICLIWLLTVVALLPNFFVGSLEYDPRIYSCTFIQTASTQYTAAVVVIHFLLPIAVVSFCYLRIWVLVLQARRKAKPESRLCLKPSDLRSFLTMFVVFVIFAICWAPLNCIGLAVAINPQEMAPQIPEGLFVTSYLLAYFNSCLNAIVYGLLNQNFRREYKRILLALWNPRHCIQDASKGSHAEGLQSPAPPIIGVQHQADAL
Method: as §1

[3] = target: T3, human histamine H3 receptor (Homo sapiens, UniProt Q9Y5N1); assay: Human histamine H3 receptor binding assay, [3H](R)-α-methylhistamine displacement; details: SK-N-MC cell homogenates expressing hH3R; 0.5 nM [3H](R)-α-methylhistamine; mean ± SEM of three experiments
T3 construct: expressed in transfected cells; host or cells: SK-N-MC cells
Method: Homogenates of SK–N–MC cells expressing human histamine H3 receptors (hH3Rs) were used to determine affinity values of the new compounds in radioligand displacement studies according to Lovenberg et al.’s method. SK–N–MC cells in confluent culture plates were harvested using trypsin digestion and then centrifuged for 5 min at 1100 rpm. Pellets, either fresh or stored at −80 °C until the moment of use, were mechanically homogenized with Potter-Elvhejem in 20 mM Tris-HCl/0.5 mM EDTA. Supernatants from a 2000 rpm spin (10 min) were collected and re-centrifuged at 10,000 rpm for 30 min. Pellets were re-homogenized in 50 mM Tris-HCl/5 mM EDTA (pH 7.4). Membranes were incubated for 60 min at room temperature with 0.5 nM [^3H](R)-α-methylhistamine in 50 mM Tris-HCl/5 mM EDTA (pH 7.4) with or without competing ligands. Each concentration was tested in triplicate. Incubation was terminated by rapid filtration over Millipore (Darmstadt, Germany) AAWPO2500 filters followed by two washes with ice-cold buffer (50 mM Tris-HCl/5 mM EDTA). Filters retained radioactivity was determined by liquid scintillation counting (Ultima Gold XR Perkin Elmer (Waltham, MA, USA) scintillation liquid, Tri-Carb 2810 TR Perkin Elmer (Waltham, MA, USA) Liquid Scintillation Analyzer). […] Data are expressed as mean ± SEM of three independent experiments.

human MT1 receptor [4] = target: T1, human MT1 receptor; assay: [35S]GTPγS binding assay, human MT1 receptor; assay type: biochemical
Method: (§2) To determine the functional activity of compound 14d at MT1 and MT2 receptor subtypes, [^35S]GTPγS binding assays in NIH3T3 cells expressing human-cloned MT1 or MT2 receptors were performed. The amount of bound [^35S]GTPγS is proportional to the level of the analog-induced G protein activation and is related to the intrinsic activity of the compound under study. The detailed description and validation of this method were reported elsewhere. Membranes (15–25 μg of protein, final incubation volume 100 μL) were incubated at 30 °C for 30 min in the presence and absence 14d, in assay buffer consisting of [^35S]GTPγS (0.3–0.5 nM), GDP (50 μM), NaCl (100 mM), and MgCl2 (3 mM). Nonspecific binding was defined using GTPγS (10 μM). […] Basal stimulation is the amount of [^35S]GTPγS specifically bound in the absence of compounds and was taken as 100%. […] All of the measurements were performed in triplicate.

human MT2 receptor [5] = target: T2, human MT2 receptor; assay: [35S]GTPγS binding assay, human MT2 receptor; assay type: biochemical
Method: as §2

T1 sequence (P48039 whole entry): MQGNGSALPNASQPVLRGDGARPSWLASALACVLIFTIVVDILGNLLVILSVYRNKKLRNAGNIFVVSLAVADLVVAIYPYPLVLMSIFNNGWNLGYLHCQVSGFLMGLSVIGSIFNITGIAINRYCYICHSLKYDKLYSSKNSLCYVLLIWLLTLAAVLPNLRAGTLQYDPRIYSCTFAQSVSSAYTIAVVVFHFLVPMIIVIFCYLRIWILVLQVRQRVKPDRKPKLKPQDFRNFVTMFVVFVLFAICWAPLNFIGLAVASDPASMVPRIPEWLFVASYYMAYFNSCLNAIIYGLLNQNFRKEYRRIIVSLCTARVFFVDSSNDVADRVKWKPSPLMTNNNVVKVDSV
T3 sequence (Q9Y5N1 whole entry): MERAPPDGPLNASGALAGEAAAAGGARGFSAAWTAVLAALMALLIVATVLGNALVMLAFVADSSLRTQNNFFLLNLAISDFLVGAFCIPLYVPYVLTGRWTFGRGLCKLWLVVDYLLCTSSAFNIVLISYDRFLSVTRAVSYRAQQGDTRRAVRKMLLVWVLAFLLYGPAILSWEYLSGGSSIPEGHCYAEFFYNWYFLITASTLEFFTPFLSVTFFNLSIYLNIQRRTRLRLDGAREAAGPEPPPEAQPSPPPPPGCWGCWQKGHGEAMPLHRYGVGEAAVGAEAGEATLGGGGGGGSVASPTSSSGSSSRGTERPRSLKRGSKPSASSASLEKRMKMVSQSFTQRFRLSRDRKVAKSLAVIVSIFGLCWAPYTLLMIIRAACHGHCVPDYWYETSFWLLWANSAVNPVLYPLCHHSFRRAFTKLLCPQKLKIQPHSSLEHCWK

Substance	hMT1 pKi (human MT1 receptor [1])	hMT2 pKi (human MT2 receptor [2])	hH3 pKi [3]	functional behaviour at MT1 receptor in the GTPγS assay (human MT1 receptor [4]; GTPγS assay)	hMT1 IAR (relative intrinsic activity) (human MT1 receptor [4]; [35S]GTPγS binding, NIH3T3 cells expressing human MT1, relative to melatonin)	functional behaviour at MT2 receptor in the GTPγS assay (human MT2 receptor [5]; GTPγS assay)	hMT2 IAR (relative intrinsic activity) (human MT2 receptor [5]; [35S]GTPγS binding, NIH3T3 cells expressing human MT2, relative to melatonin)
N-[2-({3-[5-(1H-Imidazol-4-yl)pentyloxy]phenyl}methylamino)ethyl]acetamide [Compound 14c]	6.09 ± 0.12	6.28 ± 0.10	6.28 ± 0.03	–	–	–	–
N-[2-({3-[6-(1H-Imidazol-4-yl)hexyloxy]phenyl}methylamino)ethyl]acetamide [Compound 14d]	6.79 ± 0.01	6.76 ± 0.06	6.22 ± 0.09	antagonist	−0.26 ± 0.09	antagonist	−0.35 ± 0.19
N-[2-({3-[3-(1H-Imidazol-4-yl)propoxy]phenyl}methylamino)ethyl]acetamide [Compound 14a]	–	–	5.91 ± 0.01	–	–	–	–
